Test system: R77C mutated α-sarcoglycan
Assay: Immunofluorescence marking of α-sarcoglycan at the membrane of non-permeabilized quadri-transfected HER 911 cells
Assay type: cell-based, human
Conditions: 24 h treatment; for membrane localization of the R77C-mutated α-sarcoglycan protein: HER 911 cells quadri-transfected with α(R77C)-, β-, γ-, δ-sarcoglycan; for membrane addressing of the sarcoglycan complex: quadritransfected HER 911 cells
Description: HER-911 (“Human Embryonic Retinoblast”) cells have been inoculated in vials and cultivated up to a 80% confluence in Dulbecco's modified Eagle's+GlutaMAX (Gibco, Invitrogen) medium containing 10% of fetal calf serum, 0.01 mg/ml of gentamicin, and 1% MEM Non Essential Amino Acids (Gibco, Invitrogen). The cells have been maintained in a humidified atmosphere with 5% C02, at 37° C.
The HER-91 cells have been transfected by means of 12 μl of Fugene.6 Transfection Reagent (Roche) for 2 μg of plasmid (0.5 μg of each of the 4 sarcoglycan (SG) constructions for HER-911 cells). The plasmids expressing the SG, pcDNA3.V5-his_hα-SG, pcDNA3.V5-his_hβ-SG, pcDNA3.V5-his_hγ-SG, and pcDNA3.V5-his_hδ1-SG (transcriptional type-1 variant), are plasmids where the expression of the coding sequence of the respective sarcoglycans is under control of the CMV promoter.
After 48 h, the cells have been treated for 24 h with 5 μM of 5-aza-2′-deoxycytidine or 1 μM of SAHA (Suberoylanilide hydroxamnic acid).
The HER-911 cells have been fixed by incubation with 3.7% of formaldehyde for 15 min at room temperature. If necessary, a permeabilization has been performed by using 0.2% Triton X-100 for 20 min. After having been saturated with 20% fetal calf serum for 30 min, the cells have been incubated with primary antibodies at adapted dilutions (in PBS) for 1 h at room temperature. A monoclonal murine antibody specific for α-SG (NCL-A-SARC) is available from Novocastra. The cells have been washed 3 times with PBS and then incubated for 1 h with secondary antibodies diluted by 1/1,000 in PBS. Finally, the cells have been washed in PBS, mounted by using a Vectashield Mounting Medium with DAPI (Vector, H-1200), and then examined with a confocal immunofluorescence microscope (Leica).
HER 911 human cells have been quadri-transfected with plasmids coding β-, γ-, and δ-sarcoglycans and a plasmid coding either non-mutated α-sarcoglycan (FIG. 1A and FIG. 2A), or R77C mutated α-sarcoglycan (FIGS. 1B and 1C; FIGS. 2B and 2C).
An immunomarking has then been performed on the non-permeabilized cells by using an antibody directed against the extracellular portion of the α-sarcoglycan, which enables to visualize the protein only at the cellular membrane level and thus to compare the addressing of the mutated protein with that of the normal protein.

With `O=C(CCCCCCC(=O)Nc1ccccc1)NO` [SAHA, suberoylanilide hydroxamic acid] the “membrane localization of the R77C-mutated α-sarcoglycan protein” value (1 μM, FIG. 2C) was “restores the membrane localization of the R77C-mutated protein” and the “membrane addressing of the sarcoglycan complex” value (1 μM) was “enabled to reconstitute the complex at the membrane”.
In the case of `Nc1ncn([C@@H]2O[C@H](CO)[C@@H](O)[C@H]2O)c(=O)n1` [5-azacytidine], the “membrane localization of the R77C-mutated α-sarcoglycan protein” value (5 μM, FIG. 1C) is reported as “restores the membrane localization of the R77C-mutated protein” and the “membrane addressing of the sarcoglycan complex” value (5 μM) is reported as “enabled to reconstitute the complex at the membrane”.

Reference: US9526742B2, “Use of epigenome-modifying compounds for the treatment of genetic muscular diseases linked to a protein-conformational disorder” (GENETHON, priority 2012, dated 2016)
